# The Kinase Knowledgebase extract (Sharma et al. 2016)
# Biological target: MAPK14 (human) (UniProt Q16539)
# Assay: Inhibition of MAPK14 Kinase Activity
# Chain of MAPK14 (human) (Q16539 whole entry, looked up): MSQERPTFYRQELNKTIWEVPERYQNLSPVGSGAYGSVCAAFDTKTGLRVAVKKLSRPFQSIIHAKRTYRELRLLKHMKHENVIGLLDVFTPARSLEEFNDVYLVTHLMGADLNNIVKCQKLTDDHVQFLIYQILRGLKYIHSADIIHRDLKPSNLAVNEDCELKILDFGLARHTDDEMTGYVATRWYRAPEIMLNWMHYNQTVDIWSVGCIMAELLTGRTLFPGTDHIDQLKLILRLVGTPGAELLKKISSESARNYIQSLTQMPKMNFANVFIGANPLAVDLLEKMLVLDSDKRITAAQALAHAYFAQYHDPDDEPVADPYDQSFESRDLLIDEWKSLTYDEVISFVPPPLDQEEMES
row,IC50,Structure (SMILES)
1,≤ 10 µM,COc1ccc(SC2CCC(=O)N(C3C(Cl)CCCC3Cl)C2)cc1 (stereo unspecified)
2,≤ 10 µM,Cc1cc(CN)cc(C)c1N1CC(Cc2ccc(F)cc2F)CCC1=O (stereo unspecified)
3,≤ 10 µM,COc1ccc(OC2CCC(=O)N(C3C(Cl)CCCC3Cl)C2)cc1 (stereo unspecified)
4,≤ 10 µM,Cc1cc(CCCN(C)C)cc(C)c1N1C[C@@H](Cc2ccc(F)cc2F)C[C@@H](C)C1=O
5,≤ 10 µM,O=C1CCC(Sc2cc(Cl)cc(Cl)c2)CN1c1c(Cl)csc1Cl (stereo unspecified)
6,≤ 10 µM,Nc1ccc(N2CC(Cc3ccc(F)cc3F)CCC2=O)c(Cl)c1 (stereo unspecified)
7,≤ 10 µM,O=C(Cc1ccccc1)Nc1cc(Cl)c(N2CC(Sc3ccc(F)cc3F)CCC2=O)c(Cl)c1 (stereo unspecified)
8,≤ 10 µM,O=C1CCC(Oc2cccc3ccccc23)CN1c1c(Cl)cccc1Cl (stereo unspecified)
9,≤ 10 µM,CN(C)C(=O)CNc1cc(Cl)c(N2CC(Cc3ccc(F)cc3F)CCC2=O)c(Cl)c1 (stereo unspecified)
10,≤ 10 µM,O=C1CCC(Oc2ccc3ccccc3c2)CN1c1c(Cl)cncc1Cl (stereo unspecified)
11,≤ 10 µM,O=C1CCC(Oc2ccc(F)cc2F)CN1c1c(Cl)cc(CO)nc1Cl (stereo unspecified)
12,≤ 10 µM,CN1CC(Cc2cc(F)cc(F)c2)CN(c2c(Cl)cccc2Cl)C1=O (stereo unspecified)
13,≤ 10 µM,Cc1ccc(CC2CCC(=O)N(c3c(Cl)csc3Cl)C2)cc1 (stereo unspecified)
14,≤ 10 µM,O=C1CCC(Oc2ccc3ccccc3c2)CN1C1C(Cl)CCCC1Cl (stereo unspecified)
15,≤ 10 µM,Cc1cc(C#CCCO)cc(C)c1N1CC(Cc2ccc(F)cc2F)CCC1=O (stereo unspecified)
16,≤ 10 µM,COc1ccc(SC2CCC(=O)N(c3c(Cl)cncc3Cl)C2)cc1 (stereo unspecified)
17,≤ 10 µM,O=C1NCC(Cc2cc(Cl)cc(Cl)c2)CN1c1c(Cl)cccc1Cl (stereo unspecified)
18,≤ 10 µM,O=C1OCC(Cc2cc(F)cc(F)c2)CN1c1c(Cl)cccc1Cl (stereo unspecified)
19,≤ 10 µM,Nc1cc(Cl)c(N2CC(Cc3ccc(F)cc3F)CSC2=O)c(Cl)c1 (stereo unspecified)
20,≤ 10 µM,Cn1nc(C(C)(C)C)cc1NC(=O)NCc1ccccc1CC1CCC(=O)N(c2c(Cl)cccc2Cl)C1 (stereo unspecified)
21,≤ 10 µM,Cc1cccc(C)c1N1CC(Cc2ccccc2OCC(C)C)CCC1=O (stereo unspecified)
22,≤ 10 µM,O=C1CCC(CO)(Cc2ccc(F)cc2F)CN1c1c(Cl)cccc1Cl (stereo unspecified)
23,≤ 10 µM,Nc1ncc(Cl)c(N2CC(Oc3ccc(F)cc3F)CCC2=O)c1Cl (stereo unspecified)
24,≤ 10 µM,O=C1COC(Cc2cc(Cl)cc(Cl)c2)CN1c1c(Cl)cccc1Cl (stereo unspecified)

row,IC50,Structure (SMILES)
1,≤ 10 µM,CN1CC(Cc2ccc(F)cc2F)CN(c2c(Cl)ccc(NC(=O)Cc3ccccc3)c2Cl)C1=O (stereo unspecified)
2,≤ 10 µM,CC(=O)NC1CC(Cl)C(N2CC(Oc3ccc(F)cc3F)CCC2=O)C(Cl)C1 (stereo unspecified)
3,≤ 10 µM,CC(=O)Nc1cc(Cl)c(N2CC(Cc3ccc(F)cc3F)CCC2=O)c(Cl)c1 (stereo unspecified)
4,≤ 10 µM,OCc1ccccc1CC1CCCN(c2c(Cl)cccc2Cl)C1 (stereo unspecified)
5,≤ 10 µM,O=C1NCC(Cc2ccccc2F)CN1c1c(Cl)cccc1Cl (stereo unspecified)
6,≤ 10 µM,O=C1CCC(Sc2ccc(F)cc2F)CN1c1c(Cl)ncc(CO)c1Cl (stereo unspecified)
7,≤ 10 µM,O=C1CCC(Cc2ccc(C(F)(F)F)cc2)CN1c1c(Cl)cccc1Cl (stereo unspecified)
8,≤ 10 µM,COc1ccc(OC2CCC(=O)N(c3c(Cl)cncc3Cl)C2)cc1 (stereo unspecified)
9,≤ 10 µM,CC(C)(C)C(=O)Nc1cc(Cl)c(N2CC(Cc3ccc(F)cc3F)CCC2=O)c(Cl)c1 (stereo unspecified)
10,≤ 10 µM,NNC(=O)CNc1cc(Cl)c(N2CC(Cc3ccc(F)cc3F)CCC2=O)c(Cl)c1 (stereo unspecified)
11,≤ 10 µM,O=C1CCC(Sc2ccc(Cl)cc2)CN1C1C(Cl)CCCC1Cl (stereo unspecified)
12,≤ 10 µM,CC(C)(C)OC(=O)N(CCO)c1cc(Cl)c(N2CC(Cc3ccc(F)cc3F)CCC2=O)c(Cl)c1 (stereo unspecified)
13,≤ 10 µM,CNC1CCC(Cl)C(N2CC(Sc3ccc(F)cc3F)CCC2=O)C1Cl (stereo unspecified)
14,≤ 10 µM,O=C1COC(Cc2ccc(F)cc2F)CN1c1c(Cl)ccc(O)c1Cl (stereo unspecified)
15,≤ 10 µM,O=C1CCC(Cc2ccc3ccccc3c2)CN1c1c(Cl)csc1Cl (stereo unspecified)
16,≤ 10 µM,CC(C)(C)OC(=O)Nc1cc(Cl)c(N2CC(Cc3ccc(F)cc3F)CCC2=O)c(Cl)c1 (stereo unspecified)
17,≤ 10 µM,N[C@H]1C[C@@H](Cc2ccc(F)cc2F)CN(c2c(Cl)cccc2Cl)C1=O
18,≤ 10 µM,O=C1CCC(Cc2cc(Cl)cc(Cl)c2)CN1c1c(Cl)ccnc1Cl (stereo unspecified)
19,≤ 10 µM,Cc1ccccc1CC1CCC(=O)N(c2c(Cl)cccc2Cl)C1 (stereo unspecified)
20,≤ 10 µM,CC(C)(C)OC(=O)N[C@@H](COCc1ccccc1)C(=O)Nc1cc(Cl)c(N2CC(Cc3ccc(F)cc3F)CCC2=O)c(Cl)c1 (stereo partly specified)
21,≤ 10 µM,Cc1ccc(CC2CN(c3c(Cl)cccc3Cl)C(=O)CO2)cc1 (stereo unspecified)
22,≤ 10 µM,CC(=O)Nc1ccc(Cl)c(N2CC(Cc3ccc(F)cc3F)CSC2=O)c1Cl (stereo unspecified)
23,≤ 10 µM,COc1ccccc1CC1COC(=O)N(c2c(Cl)cccc2Cl)C1 (stereo unspecified)
24,≤ 10 µM,O=C1CCC(Oc2ccccc2Cl)CN1C1C(Cl)CCCC1Cl (stereo unspecified)

row,IC50,Structure (SMILES)
1,≤ 10 µM,CCN(CC)CC(=O)Nc1cc(Cl)c(N2CC(Cc3ccc(F)cc3F)CCC2=O)c(Cl)c1 (stereo unspecified)
2,≤ 10 µM,O=C1CCC(Cc2cc(Cl)cc(Cl)c2)CN1c1c(Cl)cncc1Cl (stereo unspecified)
3,≤ 10 µM,O=C1CCC(Cc2ccc(F)cc2F)CN1c1c(Cl)ncc(CO)c1Cl (stereo unspecified)
4,≤ 10 µM,O=C1CCC(Cc2ccc(F)cc2F)CN1c1c(Cl)cc(NCCO)cc1Cl (stereo unspecified)
5,≤ 10 µM,CS(=O)(=O)NCCNc1cc(Cl)c(N2CC(Cc3ccc(F)cc3F)CCC2=O)c(Cl)c1 (stereo unspecified)
6,≤ 10 µM,O=C1CCC(Cc2cc(Cl)cc(Cl)c2)CN1c1c(Cl)cccc1Cl (stereo unspecified)
7,≤ 10 µM,O=C1COC(Cc2ccc3ccccc3c2)CN1c1c(Cl)cccc1Cl (stereo unspecified)
8,≤ 10 µM,O=C1CCC(Sc2ccc(F)cc2)CN1C1C(Cl)CCCC1Cl (stereo unspecified)
9,≤ 10 µM,O=C1CCC(Cc2ccc(F)cc2F)CN1c1c(Cl)cncc1Cl (stereo unspecified)
10,≤ 10 µM,CC(C)(C)OC(=O)N[C@@H](CO)C(=O)Nc1cc(Cl)c(N2CC(Cc3ccc(F)cc3F)CCC2=O)c(Cl)c1 (stereo partly specified)
11,≤ 10 µM,COc1ccccc1CC1CCC(=O)N(c2c(Cl)csc2Cl)C1 (stereo unspecified)
12,≤ 10 µM,O=C1CCC(Sc2ccccc2)CN1c1c(Cl)cccc1Cl (stereo unspecified)
13,≤ 10 µM,CC(C)(C)OC(=O)N(CCNC(N)=O)c1cc(Cl)c(N2CC(Cc3ccc(F)cc3F)CCC2=O)c(Cl)c1 (stereo unspecified)
14,≤ 10 µM,CN(C(=O)Cc1ccccc1)c1cc(Cl)c(N2CC(Cc3ccc(F)cc3F)CCC2=O)c(Cl)c1 (stereo unspecified)
15,≤ 10 µM,CC(=O)Nc1ccc(Cl)c(N2CC(Cc3ccc(F)cc3F)CCC2=O)c1 (stereo unspecified)
16,≤ 10 µM,O=C1CCC(Sc2ccccc2Cl)CN1C1C(Cl)CCCC1Cl (stereo unspecified)
17,≤ 10 µM,O=C(CCCO)Nc1cc(Cl)c(N2CC(Cc3ccc(F)cc3F)CCC2=O)c(Cl)c1 (stereo unspecified)
18,≤ 10 µM,CC(=O)Nc1sc(Cl)c(N2CC(Cc3ccc(F)cc3F)CCC2=O)c1Cl (stereo unspecified)
19,≤ 10 µM,NC1CC(Cl)C(N2CC(Oc3ccc(F)cc3F)CCC2=O)C(Cl)C1 (stereo unspecified)
20,≤ 10 µM,CC(C)(C)OC(=O)N1CCC(Nc2cc(Cl)c(N3CC(Cc4ccc(F)cc4F)CCC3=O)c(Cl)c2)CC1 (stereo unspecified)
21,≤ 10 µM,O=C1SCC(Cc2ccc(F)cc2F)CN1c1c(Cl)ccc(O)c1Cl (stereo unspecified)
22,≤ 10 µM,Cc1ccc(OC2CCC(=O)N(c3c(Cl)csc3Cl)C2)cc1 (stereo unspecified)
23,≤ 10 µM,Nc1cc(Cl)c(N2CC(Cc3ccc(F)cc3F)CCC2=O)c(Cl)c1 (stereo unspecified)
